# Assay results taken from patent publication US20160220569A1, “CDK4/6 Inhibitor Dosage Formulations For The Protection Of Hematopoietic Stem And Progenitor Cells During Chemotherapy” (G1 Therapeutics, Inc., priority 2015, published 2016).
# Read-outs that look alike come from different tables or passages of the source.
# Experiment: Single escalating dose IV infusion pharmacokinetics in healthy volunteers (noncompartmental)
# Type: in vivo, human
# Conditions: human, plasma; for concentration at 24.5 h: read-out: concentration at 24.5 hours after the start of infusion; for concentration at 12.5 h: Time 12.50 h
# Procedure: Forty-five subjects have enrolled in the study.
# Analysis of plasma concentration versus time data for calculation of standard pharmacokinetic (PK) parameters following intravenous infusion administration was conducted using Phoenix WinNonlin version 6.3 using a nominal infusion duration and scheduled blood sampling times. Random subject numbers were assigned by the bioanalytical laboratory to retain the blind.
# (§1) Analysis of plasma concentration versus time data for calculation of standard pharmacokinetic (PK) parameters following intravenous infusion administration was conducted using Phoenix WinNonlin version 6.3 using a nominal infusion duration and scheduled blood sampling times.
# as §1
# [1] = both sexes, iv, 48 mg/m2, Cohort 4, 48 mg/m^2 IV, r6-8=Subjects 1-3,r10=Mean,r12=Min,r13=Median,r14=Max,r16=Geometric Mean
# [2] = both sexes, iv, 48 mg/m^2, Compound 1 Concentration, Cohort 4, 48 mg/m^2 IV, r7-9=Subjects 1-3,r11=Mean,r13=Min,r14=Median,r15=Max,r17=Geometric Mean
# [3] = both sexes, iv, 96 mg/m^2, Cohort 5, 96 mg/m^2, 30-minute IV infusion, noncompartmental, subjects 1-6, Mean, Min, Median, Max, Geometric Mean
# [4] = both sexes, iv, 96 mg/m^2, Compound 1 Concentration, Cohort 5, 96 mg/m^2 IV, r7-12=Subjects 1-6,r14=Mean,r16=Min,r17=Median,r18=Max,r20=Geometric Mean
smiles,measurement,setting,value
"CN1CCN(c2ccc(Nc3ncc4cc5n(c4n3)C3(CCCCC3)CNC5=O)nc2)CC1 [Compound 1, 2′-((5-(4-methylpiperazin-1-yl)pyridin-2-yl)amino)-7′,8′-dihydro-6′H-spiro[cyclohexane-1,9′-pyrazino[1′,2′:1,5]pyrrolo[2,3-d]pyrimidin]-6′-one]",Cmax,"both sexes, iv, 48 mg/m2, Cohort 4, 48 mg/m^2 IV, mean, read-out: Cmax averaged",224 ng/mL
same,Tmax,"both sexes, iv, 48 mg/m2, Cohort 4, 48 mg/m^2 IV, median, read-out: median Tmax",0.5 h
same,AUC(0-t),[1],453 ng·h/mL
same,MRT inf,[1],8.08 h
same,AUC(0-inf),"both sexes, iv, 48 mg/m2, Cohort 4, 48 mg/m^2 IV, r6-8=Subjects 1-3,r10=Mean,r12=Min,r13=Median,r14=Max,r16=Geometric Mean, read-out: AUCinf",499 ng·h/mL
same,Cmax,"both sexes, iv, 48 mg/m2, Cohort 4, 48 mg/m^2 IV, r6-8=Subjects 1-3,r10=Mean,r12=Min,r13=Median,r14=Max,r16=Geometric Mean, read-out: Cmax",224 ng/mL
same,Tmax,"both sexes, iv, 48 mg/m2, Cohort 4, 48 mg/m^2 IV, r6-8=Subjects 1-3,r10=Mean,r12=Min,r13=Median,r14=Max,r16=Geometric Mean, read-out: Tmax",0.417 h
same,half-life,"both sexes, iv, 48 mg/m2, Cohort 4, 48 mg/m^2 IV, range over subjects, read-out: Half-lives range",7.24 to 10.9 h
same,concentration at 72 h,"both sexes, iv, 48 mg/m^2, Cohort 4, 48 mg/m^2 IV, one subject measurable, read-out: concentration at 72 hours after the EOI",0.76 ng/mL
same,concentration at 24.5 h,"both sexes, iv, 48 mg/m^2, Cohort 4, 48 mg/m^2 IV, range over 3 subjects",2.08 to 4.66 ng/mL
same,concentration at 0.25 h,[2],192 ng/mL
same,concentration at 0.75 h,"both sexes, iv, 48 mg/m^2, Compound 1 Concentration, Cohort 4, 48 mg/m^2 IV, Time 0.75 h, r7-9=Subjects 1-3,r11=Mean,r13=Min,r14=Median,r15=Max,r17=Geometric Mean",107 ng/mL
same,concentration at 1 h,"both sexes, iv, 48 mg/m^2, Compound 1 Concentration, Cohort 4, 48 mg/m^2 IV, Time 1.00 h, r7-9=Subjects 1-3,r11=Mean,r13=Min,r14=Median,r15=Max,r17=Geometric Mean",81.9 ng/mL
same,concentration at 2.5 h,"both sexes, iv, 48 mg/m^2, Compound 1 Concentration, Cohort 4, 48 mg/m^2 IV, Time 2.50 h, r7-9=Subjects 1-3,r11=Mean,r13=Min,r14=Median,r15=Max,r17=Geometric Mean",34.2 ng/mL
same,concentration at 3.5 h,"both sexes, iv, 48 mg/m^2, Compound 1 Concentration, Cohort 4, 48 mg/m^2 IV, Time 3.50 h, r7-9=Subjects 1-3,r11=Mean,r13=Min,r14=Median,r15=Max,r17=Geometric Mean",27.6 ng/mL
same,concentration at 6.5 h,"both sexes, iv, 48 mg/m^2, Compound 1 Concentration, Cohort 4, 48 mg/m^2 IV, Time 6.50 h, r7-9=Subjects 1-3,r11=Mean,r13=Min,r14=Median,r15=Max,r17=Geometric Mean",17 ng/mL
same,concentration at 8.5 h,"both sexes, iv, 48 mg/m^2, Compound 1 Concentration, Cohort 4, 48 mg/m^2 IV, Time 8.50 h, r7-9=Subjects 1-3,r11=Mean,r13=Min,r14=Median,r15=Max,r17=Geometric Mean",12.1 ng/mL
same,concentration at 12.5 h,[2],8.36 ng/mL
same,AUC(0-inf),"both sexes, iv, 96 mg/m2, Cohort 5, 96 mg/m^2 IV, mean, read-out: AUCinf averaged",1320 ng·h/mL
same,Cmax,"both sexes, iv, 96 mg/m2, Cohort 5, 96 mg/m^2 IV, mean, read-out: Cmax averaged",900 ng/mL
same,half-life,"both sexes, iv, 96 mg/m2, Cohort 5, 96 mg/m^2 IV, mean, read-out: Half-lives averaged (converted)",8.62 h
same,Tmax,"both sexes, iv, 96 mg/m2, Cohort 5, 96 mg/m^2 IV, median, read-out: median Tmax",0.375 h
same,half-life,"both sexes, iv, 96 mg/m2, Cohort 5, 96 mg/m^2 IV, range over subjects, read-out: Half-lives range",6.97 to 10.9 h
same,AUC(0-t),[3],1530 ng·h/mL
same,MRT inf,[3],4.36 h
same,AUC(0-inf),"both sexes, iv, 96 mg/m^2, Cohort 5, 96 mg/m^2, 30-minute IV infusion, noncompartmental, subjects 1-6, Mean, Min, Median, Max, Geometric Mean, read-out: AUCinf",1590 ng·h/mL
same,Cmax,"both sexes, iv, 96 mg/m^2, Cohort 5, 96 mg/m^2, 30-minute IV infusion, noncompartmental, subjects 1-6, Mean, Min, Median, Max, Geometric Mean, read-out: Cmax",949 ng/mL
same,Tmax,"both sexes, iv, 96 mg/m^2, Cohort 5, 96 mg/m^2, 30-minute IV infusion, noncompartmental, subjects 1-6, Mean, Min, Median, Max, Geometric Mean, read-out: Tmax",0.5 h
same,half-life,"both sexes, iv, 96 mg/m^2, Cohort 5, 96 mg/m^2, 30-minute IV infusion, noncompartmental, subjects 1-6, Mean, Min, Median, Max, Geometric Mean, read-out: t½ (converted)",7.11 h
same,concentration at 24.5 h,"both sexes, iv, 96 mg/m^2, Cohort 5, 96 mg/m^2 IV, range over subjects",3.96 to 9.59 ng/mL
same,concentration at 0.25 h,[4],843 ng/mL
same,concentration at 0.5 h,"both sexes, iv, 96 mg/m^2, Compound 1 Concentration, Cohort 5, 96 mg/m^2 IV, Time 0.50 h, r7-12=Subjects 1-6,r14=Mean,r16=Min,r17=Median,r18=Max,r20=Geometric Mean",992 ng/mL
same,concentration at 12.5 h,[4],11.9 ng/mL
same,Tmax,"both, intravenous, […]2, Cohort 6, […]^2, 0-24.5 hr data, noncompartmental, subjects 1-6, Mean, Min, Median, Max, Geometric Mean, read-out: Tmax",0.5 h
same,Tmax,"both, intravenous, […]2, Cohort 6, […]^2, 0-[…] data, noncompartmental, subjects 1-6, Mean, Min, Median, Max, Geometric Mean, read-out: Tmax",0.5 h
same,half-life,"both, intravenous, […]2, Cohort 7, […]^2, N = 12, Geo. Mean, read-out: t1/2 (converted)",14.5 h
same,Tmax,"both, intravenous, […]2, Cohort 7, […]^2, N = 12, Geo. Mean, read-out: tmax",0.36 h
same,half-life,"both, intravenous, […]2, Cohort 7, […]^2, N = 12, min-max, read-out: t1/2 (converted)",11.9 to 17.3 h
same,Tmax,"both, intravenous, […]2, Cohort 7, […]^2, N = 12, min-max, read-out: tmax",0.25 to 0.48 h
same,half-life,"both, intravenous, […]^2, Cohort 6 + 7, […]^2, N = 18, Geo. Mean, read-out: t1/2 (converted)",14.5 h
same,Tmax,"both, intravenous, […]^2, Cohort 6 + 7, […]^2, N = 18, Geo. Mean, read-out: tmax",0.37 h
same,half-life,"both, intravenous, […]^2, Cohort 6 + 7, […]^2, N = 18, min-max, read-out: t1/2 (converted)",11.9 to 17.3 h
same,Tmax,"both, intravenous, […]^2, Cohort 6 + 7, […]^2, N = 18, min-max, read-out: tmax",0.25 to 0.48 h
same,half-life,"both, iv, […]2, Cohort 6, […]^2 IV, 0-24.5 hr data, mean, read-out: Half-lives averaged (converted)",7.87 h
same,half-life,"both, iv, […]2, Cohort 6, […]^2 IV, 0-24.5 hr data, range over subjects, read-out: Half-lives range",5.78 to 8.79 h
same,half-life,"both, iv, […]2, Cohort 6, […]^2 IV, 0-[…] data, mean, read-out: Half-lives averaging (converted)",18 h
same,half-life,"both, iv, […]2, Cohort 6, […]^2 IV, 0-[…] data, range over subjects, read-out: Half-lives range",16.9 to 20.1 h
same,Tmax,"both, iv, […]2, Cohort 6, […]^2 IV, median, read-out: median Tmax",0.5 h
